This is an account of results in patent US4851420A, “2,6-diamino-3-halobenzylpyridines and processes for their manufacture as well as their use in pharmaceuticals” (ASTA Pharma Aktiengesellschaft, priority 1986, dated 1989).

SMILES strings stand for the structures.

In general, LD50 refers to the dose at which mortality reaches 50%. The low end stands for greater toxicity, the high end for lower toxicity. By ED50 is commonly meant the midpoint of the dose-response relation. High values mean weaker potency, low ones greater potency.

A short description of data set [1]: general absence of side-effects (gastrointestinal disorders, gastric ulcers). In kind it is in vivo. Conditions: compared to known substances, e.g. non-steroidal anti-inflammatory agents with analgesic components.
The next data set can be described thus: Toxicity, LD50 rat. Conditions: in vivo, po. From the text:
(§1) Miller, Tainter, Proc. Soc. Exper. Biol. Med. 57, 261 (1944).

A short description of data set [2]: Randall-Selitto Test (analgesia), rat. Conditions: for ED50: po. It counts as in vivo. From the text: Randall-Selitto Test G. Engelhardt, Arzneim. Forsch. 34, 992 et seq. (1984); Maruyama et al., Arzneim. Forsch. 28, 11 (1978).
Data set [3] can be described thus: acetic acid Writhing Test (analgesia), mouse. In kind it is in vivo. Conditions: p.a. (so in the source). From the text: Acetic acid Writhing Test Koster et al., Fed. Proc., Volume 18, 412 (1959).
A further data set can be described thus: Toxicity, LD50 mouse. Conditions: in vivo, po.
Source text: as §1

As to `Nc1ccc(Cc2ccc(F)cc2)c(N)n1` [D 17033, 2,6-diamino-3-(4-fluoro)benzylpyridine], the “side-effects such as gastrointestinal disorders and gastric ulcers” value in data set [1] is listed as “general absence of side-effects”. Moreover, the median lethal dose (LD50) in “Toxicity, LD50 rat” stood at 1100 mg/kg; in “Toxicity, LD50 mouse”, 266 mg/kg. The ED50 in data set [2] is 0.2 mg/kg; in data set [3] it was 1.4 mg/kg.
In the case of `Nc1ccc(Cc2ccccc2F)c(N)n1` [D 17746, 2,6-diamino-3-(2-fluoro)benzylpyridine], in “Toxicity, LD50 mouse”, the LD50 is 276 mg/kg.
Regarding `Nc1ccc(Cc2c(F)cccc2Cl)c(N)n1` [D 17748, 2,6-diamino-3-(2-fluoro-6-chloro)benzylpyridine], the “Randall-Selitto Test Rat, % effect at stated dose” value in data set [2] (p.o., at 0.5 mg/kg (printed 0.5/57%)) was 57%. In addition, in data set [3] (at 0.5 mg/kg (printed 0.5/34%)), the “acetic acid Writhing Test Mouse, % effect at stated dose” value was 34%. This compound returned an LD50 in “Toxicity, LD50 mouse” of 285 mg/kg.
As to `CCOC(=O)Nc1ccc(NCc2ccc(F)cc2)nc1N` [Flupirtin, reference compound], the LD50 in “Toxicity, LD50 rat” turned out to be 1660 mg/kg; in “Toxicity, LD50 mouse”, 633 mg/kg. For the same compound, the ED50 came to 38.8 mg/kg in data set [2] and 44.5 mg/kg in data set [3].
